According to PubChem BioAssay (NCI):
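Exposure lasted 48 hours, with cells grown in 96-well plates and compounds tested at five concentrations. GI50 = concentration required for 50% inhibition of growth. Definition used: TGI = concentration required for complete inhibition of growth.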

How the values were obtained:
Assay in all cases: DTP human tumour cell line panel, 48 h
786-0 renal = tested on: 786-0 renal
A498 renal = tested on: A498 renal
A549 NSCLC = tested on: A549 NSCLC
ACHN renal = tested on: ACHN renal
BT-549 breast = tested on: BT-549 breast
CAKI-1 renal = tested on: CAKI-1 renal
CCRF-CEM leukemia = tested on: CCRF-CEM leukemia
COLO 205 colon = tested on: COLO 205 colon
DU-145 prostate = tested on: DU-145 prostate
EKVX NSCLC = tested on: EKVX NSCLC
HCC-2998 colon = tested on: HCC-2998 colon
HCT-116 colon = tested on: HCT-116 colon
HCT-15 colon = tested on: HCT-15 colon
HL-60(TB) leukemia = tested on: HL-60(TB) leukemia
HOP-92 NSCLC = tested on: HOP-92 NSCLC
HS 578T breast = tested on: HS 578T breast
HT29 colon = tested on: HT29 colon
IGROV1 ovarian = tested on: IGROV1 ovarian
K-562 leukemia = tested on: K-562 leukemia
KM12 colon = tested on: KM12 colon
LOX IMVI melanoma = tested on: LOX IMVI melanoma
M14 melanoma = tested on: M14 melanoma
MALME-3M melanoma = tested on: MALME-3M melanoma
MCF7 breast = tested on: MCF7 breast
MDA-MB-231 breast = tested on: MDA-MB-231 breast
MDA-MB-435 = tested on: MDA-MB-435
MDA-MB-468 breast = tested on: MDA-MB-468 breast
MOLT-4 leukemia = tested on: MOLT-4 leukemia
NCI-H226 lung = tested on: NCI-H226 lung
NCI-H23 lung = tested on: NCI-H23 lung
NCI-H460 lung = tested on: NCI-H460 lung
NCI-H522 lung = tested on: NCI-H522 lung
NCI/ADR-RES ovarian = tested on: NCI/ADR-RES ovarian
OVCAR-3 ovarian = tested on: OVCAR-3 ovarian
OVCAR-4 ovarian = tested on: OVCAR-4 ovarian
OVCAR-5 ovarian = tested on: OVCAR-5 ovarian
OVCAR-8 ovarian = tested on: OVCAR-8 ovarian
PC-3 prostate = tested on: PC-3 prostate
RPMI-8226 leukemia = tested on: RPMI-8226 leukemia
RXF 393 renal = tested on: RXF 393 renal
SF-268 CNS = tested on: SF-268 CNS
SF-295 CNS = tested on: SF-295 CNS
SF-539 CNS = tested on: SF-539 CNS
SK-MEL-2 melanoma = tested on: SK-MEL-2 melanoma
SK-MEL-28 melanoma = tested on: SK-MEL-28 melanoma
SK-MEL-5 melanoma = tested on: SK-MEL-5 melanoma
SK-OV-3 ovarian = tested on: SK-OV-3 ovarian
SN12C renal = tested on: SN12C renal
SNB-19 CNS = tested on: SNB-19 CNS
SNB-75 CNS = tested on: SNB-75 CNS
SW-620 colon = tested on: SW-620 colon
T-47D breast = tested on: T-47D breast
TK-10 renal = tested on: TK-10 renal
U251 CNS = tested on: U251 CNS
UACC-257 melanoma = tested on: UACC-257 melanoma
UACC-62 melanoma = tested on: UACC-62 melanoma
UO-31 renal = tested on: UO-31 renal

SMILES: COc1ccc(NC(=O)CSc2nnc(-c3ccc(-c4nc5ccccc5[nH]4)cc3)o2)cc1
- GI50 (786-0 renal): 1.92 µM
- TGI (786-0 renal): 3.63 µM
- GI50 (A498 renal): 2.1 µM
- TGI (A498 renal): 5.75 µM
- GI50 (A549 NSCLC): 1.97 µM
- TGI (A549 NSCLC): 4.22 µM
- GI50 (ACHN renal): 2.4 µM
- TGI (ACHN renal): 5.86 µM
- GI50 (BT-549 breast): 1.94 µM
- TGI (BT-549 breast): 4.09 µM
- GI50 (CAKI-1 renal): 1.89 µM
- TGI (CAKI-1 renal): 3.83 µM
- GI50 (CCRF-CEM leukemia): 3.03 µM
- TGI (CCRF-CEM leukemia): > 100 µM
- GI50 (COLO 205 colon): 4.51 µM
- TGI (COLO 205 colon): 19.3 µM
- GI50 (DU-145 prostate): 2.77 µM
- TGI (DU-145 prostate): 7.62 µM
- GI50 (EKVX NSCLC): 1.98 µM
- TGI (EKVX NSCLC): 4.21 µM
- GI50 (HCC-2998 colon): 12.1 µM
- TGI (HCC-2998 colon): 34.6 µM
- GI50 (HCT-116 colon): 2.38 µM
- TGI (HCT-116 colon): 5.9 µM
- GI50 (HCT-15 colon): 2.3 µM
- TGI (HCT-15 colon): 5.67 µM
- GI50 (HL-60(TB) leukemia): 5.04 µM
- TGI (HL-60(TB) leukemia): > 100 µM
- GI50 (HOP-92 NSCLC): 1.77 µM
- TGI (HOP-92 NSCLC): 3.79 µM
- GI50 (HS 578T breast): 2.56 µM
- TGI (HS 578T breast): 7.29 µM
- GI50 (HT29 colon): 1.82 µM
- TGI (HT29 colon): 3.42 µM
- GI50 (IGROV1 ovarian): 2.17 µM
- TGI (IGROV1 ovarian): 5.06 µM
- GI50 (K-562 leukemia): 3.65 µM
- TGI (K-562 leukemia): > 100 µM
- GI50 (KM12 colon): 3.49 µM
- TGI (KM12 colon): 13.3 µM
- GI50 (LOX IMVI melanoma): 1.81 µM
- TGI (LOX IMVI melanoma): 3.38 µM
- GI50 (M14 melanoma): 2.3 µM
- TGI (M14 melanoma): 5.27 µM
- GI50 (MALME-3M melanoma): 1.69 µM
- TGI (MALME-3M melanoma): 3.14 µM
- GI50 (MCF7 breast): 2.35 µM
- TGI (MCF7 breast): 6.4 µM
- GI50 (MDA-MB-231 breast): 1.89 µM
- TGI (MDA-MB-231 breast): 3.45 µM
- GI50 (MDA-MB-435): 2.08 µM
- TGI (MDA-MB-435): 4.55 µM
- GI50 (MDA-MB-468 breast): 2.51 µM
- TGI (MDA-MB-468 breast): 6.44 µM
- GI50 (MOLT-4 leukemia): 3.23 µM
- TGI (MOLT-4 leukemia): > 100 µM
- GI50 (NCI-H226 lung): 1.92 µM
- TGI (NCI-H226 lung): 4.17 µM
- GI50 (NCI-H23 lung): 1.93 µM
- TGI (NCI-H23 lung): 3.84 µM
- GI50 (NCI-H460 lung): 2.01 µM
- TGI (NCI-H460 lung): 4.32 µM
- GI50 (NCI-H522 lung): 1.72 µM
- TGI (NCI-H522 lung): 3.4 µM
- GI50 (NCI/ADR-RES ovarian): 9.32 µM
- TGI (NCI/ADR-RES ovarian): > 100 µM
- GI50 (OVCAR-3 ovarian): 2.29 µM
- TGI (OVCAR-3 ovarian): 4.56 µM
- GI50 (OVCAR-4 ovarian): 2.5 µM
- TGI (OVCAR-4 ovarian): 6.64 µM
- GI50 (OVCAR-5 ovarian): 2.28 µM
- TGI (OVCAR-5 ovarian): 5.23 µM
- GI50 (OVCAR-8 ovarian): 1.85 µM
- TGI (OVCAR-8 ovarian): 3.66 µM
- GI50 (PC-3 prostate): 2.06 µM
- TGI (PC-3 prostate): 3.96 µM
- GI50 (RPMI-8226 leukemia): 3.42 µM
- TGI (RPMI-8226 leukemia): > 100 µM
- GI50 (RXF 393 renal): 1.84 µM
- TGI (RXF 393 renal): 3.56 µM
- GI50 (SF-268 CNS): 2.02 µM
- TGI (SF-268 CNS): 4.2 µM
- GI50 (SF-295 CNS): 1.79 µM
- TGI (SF-295 CNS): 3.34 µM
- GI50 (SF-539 CNS): 1.79 µM
- TGI (SF-539 CNS): 3.42 µM
- GI50 (SK-MEL-2 melanoma): 2.07 µM
- TGI (SK-MEL-2 melanoma): 4.45 µM
- GI50 (SK-MEL-28 melanoma): 1.76 µM
- TGI (SK-MEL-28 melanoma): 3.21 µM
- GI50 (SK-MEL-5 melanoma): 1.91 µM
- TGI (SK-MEL-5 melanoma): 3.94 µM
- GI50 (SK-OV-3 ovarian): 2.36 µM
- TGI (SK-OV-3 ovarian): 4.94 µM
- GI50 (SN12C renal): 1.84 µM
- TGI (SN12C renal): 3.59 µM
- GI50 (SNB-19 CNS): 2.04 µM
- TGI (SNB-19 CNS): 4.04 µM
- GI50 (SNB-75 CNS): 1.83 µM
- TGI (SNB-75 CNS): 3.89 µM
- GI50 (SW-620 colon): 2.34 µM
- TGI (SW-620 colon): 6.39 µM
- GI50 (T-47D breast): 3.1 µM
- TGI (T-47D breast): 9.51 µM
- GI50 (TK-10 renal): 3.09 µM
- TGI (TK-10 renal): 10.8 µM
- GI50 (U251 CNS): 1.83 µM
- TGI (U251 CNS): 3.36 µM
- GI50 (UACC-257 melanoma): 1.92 µM
- TGI (UACC-257 melanoma): 3.93 µM
- GI50 (UACC-62 melanoma): 1.63 µM
- TGI (UACC-62 melanoma): 3.04 µM
- GI50 (UO-31 renal): 2.8 µM
- TGI (UO-31 renal): 10.4 µM
